ChEMBL document CHEMBL4342404, “Anti-cholinesterase hybrids as multi-target-directed ligands against Alzheimer's disease (1998-2018)” (Bioorg Med Chem, 2019)

Experiments:
Acetylcholinesterase [1] = molecular target: T1, Acetylcholinesterase (Rattus norvegicus, UniProt P37136); assay: Antagonist activity at Acetylcholinesterase in Sprague-Dawley rat phrenic nerve-hemidiaphragm assessed as reversal of d-tubocurarine induced neuromuscular blockade after 15 mins; details: read-out: I50
T1 sequence (P37136 whole entry): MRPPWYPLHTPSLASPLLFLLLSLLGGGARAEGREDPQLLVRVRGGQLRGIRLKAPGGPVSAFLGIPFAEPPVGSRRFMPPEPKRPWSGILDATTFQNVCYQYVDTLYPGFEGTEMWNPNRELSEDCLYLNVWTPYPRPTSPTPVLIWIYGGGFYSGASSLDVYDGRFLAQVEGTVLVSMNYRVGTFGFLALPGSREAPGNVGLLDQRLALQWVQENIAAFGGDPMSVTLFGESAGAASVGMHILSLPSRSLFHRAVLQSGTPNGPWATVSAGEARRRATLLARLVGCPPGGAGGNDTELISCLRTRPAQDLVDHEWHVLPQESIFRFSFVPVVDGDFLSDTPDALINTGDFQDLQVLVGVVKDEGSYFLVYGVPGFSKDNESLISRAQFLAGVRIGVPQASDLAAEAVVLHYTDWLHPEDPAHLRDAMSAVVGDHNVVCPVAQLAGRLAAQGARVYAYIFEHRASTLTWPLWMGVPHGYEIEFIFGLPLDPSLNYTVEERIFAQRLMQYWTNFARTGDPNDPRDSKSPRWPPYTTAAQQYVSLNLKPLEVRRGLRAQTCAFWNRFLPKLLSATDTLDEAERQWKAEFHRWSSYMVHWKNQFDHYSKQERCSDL

Acetylcholinesterase [2] = molecular target: T2, Acetylcholinesterase (Homo sapiens, UniProt P22303); assay: Inhibition of human acetylcholinesterase using acetylthiocholine as substrate pretreated followed by substrate addition and measured after 15 mins by Ellman's method
T2 sequence (P22303 whole entry): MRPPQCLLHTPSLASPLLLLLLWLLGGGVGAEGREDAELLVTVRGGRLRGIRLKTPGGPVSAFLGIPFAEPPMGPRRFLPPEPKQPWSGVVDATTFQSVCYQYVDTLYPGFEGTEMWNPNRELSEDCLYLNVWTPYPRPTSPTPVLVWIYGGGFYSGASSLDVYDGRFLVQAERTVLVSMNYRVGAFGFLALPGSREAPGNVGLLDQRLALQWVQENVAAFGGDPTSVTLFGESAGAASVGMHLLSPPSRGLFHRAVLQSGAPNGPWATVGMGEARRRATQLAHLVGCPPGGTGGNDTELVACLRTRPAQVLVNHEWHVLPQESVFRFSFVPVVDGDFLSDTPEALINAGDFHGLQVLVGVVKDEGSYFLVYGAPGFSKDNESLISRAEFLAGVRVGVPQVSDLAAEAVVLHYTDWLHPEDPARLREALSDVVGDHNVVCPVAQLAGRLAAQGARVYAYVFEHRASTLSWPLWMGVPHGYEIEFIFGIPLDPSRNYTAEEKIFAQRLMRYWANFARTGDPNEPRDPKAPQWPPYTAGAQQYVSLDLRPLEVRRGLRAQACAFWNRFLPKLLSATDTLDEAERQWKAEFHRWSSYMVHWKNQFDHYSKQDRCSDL

Cholinesterase [3] = molecular target: T3, Cholinesterase (Homo sapiens, UniProt P06276); assay: Inhibition of human butyrylcholinesterase using butyrylthiocholine iodide as substrate pretreated followed by substrate addition and measured after 15 mins by Ellman's method
T3 sequence (P06276 whole entry): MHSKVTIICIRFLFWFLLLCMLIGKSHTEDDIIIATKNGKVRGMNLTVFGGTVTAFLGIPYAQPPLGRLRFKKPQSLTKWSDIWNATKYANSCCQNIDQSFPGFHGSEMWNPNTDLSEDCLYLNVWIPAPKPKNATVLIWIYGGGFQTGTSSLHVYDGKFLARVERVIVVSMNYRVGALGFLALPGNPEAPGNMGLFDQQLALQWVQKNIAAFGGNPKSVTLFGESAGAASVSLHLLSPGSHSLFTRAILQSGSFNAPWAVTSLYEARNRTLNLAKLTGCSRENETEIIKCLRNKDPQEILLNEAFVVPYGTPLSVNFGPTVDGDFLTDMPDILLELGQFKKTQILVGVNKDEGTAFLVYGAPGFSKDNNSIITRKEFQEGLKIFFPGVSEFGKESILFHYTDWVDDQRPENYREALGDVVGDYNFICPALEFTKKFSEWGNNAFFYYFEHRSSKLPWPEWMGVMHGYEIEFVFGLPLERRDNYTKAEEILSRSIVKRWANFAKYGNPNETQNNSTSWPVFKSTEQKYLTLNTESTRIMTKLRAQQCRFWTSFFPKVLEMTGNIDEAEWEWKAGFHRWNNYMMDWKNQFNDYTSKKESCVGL

Cholinesterase [4] = molecular target: Cholinesterase (Equus caballus, UniProt P81908); assay: Inhibition of equine serum BuChE using butyrylthiocholine iodide as substrate pretreated followed by substrate addition and measured after 2 mins by Ellman's method
Sequence of Cholinesterase (Equus caballus, UniProt P81908) (P81908 whole entry): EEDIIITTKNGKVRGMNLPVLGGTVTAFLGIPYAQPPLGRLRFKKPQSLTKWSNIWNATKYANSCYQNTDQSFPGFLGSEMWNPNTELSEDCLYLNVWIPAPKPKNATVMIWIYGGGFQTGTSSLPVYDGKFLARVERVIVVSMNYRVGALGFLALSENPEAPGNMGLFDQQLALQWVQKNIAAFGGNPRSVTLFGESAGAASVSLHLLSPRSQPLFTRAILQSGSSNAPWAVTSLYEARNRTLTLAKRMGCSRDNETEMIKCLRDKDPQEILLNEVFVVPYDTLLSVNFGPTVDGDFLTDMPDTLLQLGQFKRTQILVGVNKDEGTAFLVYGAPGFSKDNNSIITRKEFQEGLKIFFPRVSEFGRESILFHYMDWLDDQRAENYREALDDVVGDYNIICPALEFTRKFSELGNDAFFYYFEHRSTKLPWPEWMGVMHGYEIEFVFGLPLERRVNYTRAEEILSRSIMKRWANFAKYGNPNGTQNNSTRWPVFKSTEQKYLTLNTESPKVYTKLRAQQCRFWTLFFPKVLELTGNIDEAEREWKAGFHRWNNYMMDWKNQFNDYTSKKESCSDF

Homo sapiens [5] = organism: Homo sapiens; assay: Selectivity index, ratio of IC50 for human AChE to IC50 for human BuChE
Acetylcholinesterase [6] = molecular target: T4, Acetylcholinesterase (Electrophorus electricus, UniProt O42275); assay: Inhibition of electric eel AChE using acetylthiocholine iodide as substrate pretreated followed by substrate addition and measured after 2 mins by Ellman's method
T4 sequence (O42275 whole entry): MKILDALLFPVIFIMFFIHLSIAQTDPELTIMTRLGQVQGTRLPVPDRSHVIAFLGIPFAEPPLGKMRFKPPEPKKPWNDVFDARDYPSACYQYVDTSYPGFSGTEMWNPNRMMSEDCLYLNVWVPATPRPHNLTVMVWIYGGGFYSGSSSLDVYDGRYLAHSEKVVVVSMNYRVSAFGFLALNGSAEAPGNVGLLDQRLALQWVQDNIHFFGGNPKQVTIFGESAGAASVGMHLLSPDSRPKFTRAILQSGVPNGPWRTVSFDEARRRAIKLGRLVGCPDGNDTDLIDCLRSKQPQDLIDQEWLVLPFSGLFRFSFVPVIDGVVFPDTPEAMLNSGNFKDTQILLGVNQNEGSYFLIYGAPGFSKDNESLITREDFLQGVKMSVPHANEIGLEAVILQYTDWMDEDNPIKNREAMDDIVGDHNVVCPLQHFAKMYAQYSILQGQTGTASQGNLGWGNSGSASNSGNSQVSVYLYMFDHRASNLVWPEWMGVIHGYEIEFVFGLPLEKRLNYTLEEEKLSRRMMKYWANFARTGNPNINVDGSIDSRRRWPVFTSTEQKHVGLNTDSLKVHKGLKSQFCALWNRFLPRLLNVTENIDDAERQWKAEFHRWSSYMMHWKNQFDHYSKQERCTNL

[7] = molecular target: Sodium-dependent serotonin transporter (Rattus norvegicus, UniProt P31652); assay: Inhibition of rat synaptosome SERT assessed as reduction in [3H]5-HT uptake
Sequence of Sodium-dependent serotonin transporter (P31652 whole entry): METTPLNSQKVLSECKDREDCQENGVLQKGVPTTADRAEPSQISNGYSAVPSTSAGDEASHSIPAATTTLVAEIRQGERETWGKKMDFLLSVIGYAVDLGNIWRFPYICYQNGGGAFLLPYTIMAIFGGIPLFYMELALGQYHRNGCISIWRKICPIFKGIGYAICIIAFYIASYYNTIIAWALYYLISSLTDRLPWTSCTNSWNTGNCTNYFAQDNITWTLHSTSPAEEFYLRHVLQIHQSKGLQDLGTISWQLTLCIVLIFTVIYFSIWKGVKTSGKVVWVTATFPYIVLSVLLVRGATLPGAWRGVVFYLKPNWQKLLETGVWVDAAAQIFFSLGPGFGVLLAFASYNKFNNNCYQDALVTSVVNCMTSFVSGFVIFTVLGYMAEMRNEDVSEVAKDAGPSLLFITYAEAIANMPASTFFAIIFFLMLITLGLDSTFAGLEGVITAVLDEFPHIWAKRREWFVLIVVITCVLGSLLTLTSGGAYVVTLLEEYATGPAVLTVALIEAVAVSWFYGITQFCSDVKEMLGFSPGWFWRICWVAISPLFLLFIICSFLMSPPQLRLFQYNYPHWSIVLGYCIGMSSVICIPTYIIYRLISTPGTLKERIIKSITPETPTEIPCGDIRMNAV

Acetylcholinesterase [8] = molecular target: T5, Acetylcholinesterase (Mus musculus, UniProt P21836); assay: Inhibition of mouse brain acetylcholinesterase by Ellman's method
T5 sequence (P21836 whole entry): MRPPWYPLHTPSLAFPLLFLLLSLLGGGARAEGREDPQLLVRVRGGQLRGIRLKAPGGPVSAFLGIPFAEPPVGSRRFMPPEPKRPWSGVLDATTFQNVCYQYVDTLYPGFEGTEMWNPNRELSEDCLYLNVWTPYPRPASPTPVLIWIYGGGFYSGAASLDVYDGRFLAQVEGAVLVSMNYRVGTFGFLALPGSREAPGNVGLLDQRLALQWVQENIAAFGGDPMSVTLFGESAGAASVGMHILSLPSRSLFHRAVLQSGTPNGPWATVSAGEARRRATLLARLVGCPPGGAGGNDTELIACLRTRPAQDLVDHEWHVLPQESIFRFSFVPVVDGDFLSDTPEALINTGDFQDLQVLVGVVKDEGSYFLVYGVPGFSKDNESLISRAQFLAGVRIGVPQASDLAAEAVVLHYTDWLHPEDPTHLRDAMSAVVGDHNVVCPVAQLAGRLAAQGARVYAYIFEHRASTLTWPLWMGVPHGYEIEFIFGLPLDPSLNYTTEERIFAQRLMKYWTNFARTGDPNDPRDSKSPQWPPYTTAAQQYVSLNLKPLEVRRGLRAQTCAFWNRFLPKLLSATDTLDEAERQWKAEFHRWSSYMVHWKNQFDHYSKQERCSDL

Acetylcholinesterase [9] = molecular target: T2, Acetylcholinesterase; assay: Inhibition of human erythrocyte acetylcholinesterase using acetylthiocholine as substrate preincubated for 60 mins followed by substrate addition by Ellman's method
Acetylcholinesterase [10] = molecular target: T4, Acetylcholinesterase; assay: Inhibition of electric eel AChE using acetylthiocholine iodide as substrate preincubated for 15 mins followed by substrate addition and measured at 1 min intervals by Ellman's method
[11] = molecular target: Acetylcholinesterase (Electrophorus electricus) (UniProt O42275); assay: Inhibition of electric eel AChE-induced amyloid beta 1 to 40 (unknown origin) aggregation at 100 uM incubated for 8 hrs by thioflavin-T fluorescence method relative to control
Sequence of Acetylcholinesterase (Electrophorus electricus) (O42275 24-633 limits assumed): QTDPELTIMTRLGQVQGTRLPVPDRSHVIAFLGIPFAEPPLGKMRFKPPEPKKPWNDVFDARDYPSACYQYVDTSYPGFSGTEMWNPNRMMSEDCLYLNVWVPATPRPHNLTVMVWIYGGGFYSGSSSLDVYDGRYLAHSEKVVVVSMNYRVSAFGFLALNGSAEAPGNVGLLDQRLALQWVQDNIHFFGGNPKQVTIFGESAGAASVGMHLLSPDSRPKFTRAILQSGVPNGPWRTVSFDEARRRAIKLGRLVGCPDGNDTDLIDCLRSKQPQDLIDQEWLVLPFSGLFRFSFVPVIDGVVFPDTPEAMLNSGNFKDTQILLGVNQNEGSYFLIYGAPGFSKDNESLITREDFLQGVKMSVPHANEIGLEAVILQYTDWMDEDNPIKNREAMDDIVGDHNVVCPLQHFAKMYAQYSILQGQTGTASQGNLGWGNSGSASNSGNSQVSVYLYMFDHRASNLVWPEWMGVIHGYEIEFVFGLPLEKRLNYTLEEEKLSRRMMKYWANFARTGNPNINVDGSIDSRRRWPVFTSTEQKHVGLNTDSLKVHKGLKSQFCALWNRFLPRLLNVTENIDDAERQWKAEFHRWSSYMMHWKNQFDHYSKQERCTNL

Cholinesterase [12] = molecular target: T3, Cholinesterase; assay: Inhibition of human serum butyrylcholinesterase using butyrylthiocholine iodide as substrate preincubated for 20 mins followed by substrate addition by Ellman's method
Homo sapiens [13] = organism: Homo sapiens; assay: Selectivity index, ratio of IC50 for human plasma butyrylcholinesterase to IC50 for human erythrocyte acetylcholinesterase
Acetylcholinesterase [14] = molecular target: T6, Acetylcholinesterase (Bos taurus, UniProt P23795)
T6 sequence (P23795 whole entry): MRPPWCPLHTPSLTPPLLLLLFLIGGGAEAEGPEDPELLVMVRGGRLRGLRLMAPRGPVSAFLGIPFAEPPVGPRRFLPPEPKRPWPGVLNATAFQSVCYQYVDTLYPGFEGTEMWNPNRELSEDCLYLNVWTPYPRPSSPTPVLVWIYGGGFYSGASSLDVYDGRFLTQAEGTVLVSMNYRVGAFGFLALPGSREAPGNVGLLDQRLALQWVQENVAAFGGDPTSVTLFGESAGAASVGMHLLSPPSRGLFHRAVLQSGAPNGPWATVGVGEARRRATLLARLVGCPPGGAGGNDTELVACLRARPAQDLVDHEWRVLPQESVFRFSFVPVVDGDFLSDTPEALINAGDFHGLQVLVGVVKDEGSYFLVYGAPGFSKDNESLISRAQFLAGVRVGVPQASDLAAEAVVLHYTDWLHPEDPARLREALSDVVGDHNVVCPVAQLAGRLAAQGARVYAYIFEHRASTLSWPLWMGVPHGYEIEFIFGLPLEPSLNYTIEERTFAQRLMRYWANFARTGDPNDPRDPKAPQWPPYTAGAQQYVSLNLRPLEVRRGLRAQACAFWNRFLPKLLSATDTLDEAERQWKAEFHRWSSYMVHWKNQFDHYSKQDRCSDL
Description: Inhibition of bovine erythrocyte acetylcholinesterase using acetylthiocholine as substrate by Ellman's method

Acetylcholinesterase [15] = molecular target: T2, Acetylcholinesterase
Cholinesterase [16] = molecular target: T3, Cholinesterase; assay: Inhibition of human butyrylcholinesterase
[17] = molecular target: Butyrylcholinesterase (Rattus norvegicus) (UniProt Q9JKC1); assay: Inhibition of rat serum butyrylcholinesterase using butyrylthiocholine iodide as substrate at 50 uM incubated for 15 mins by Ellman's method relative to control
Sequence of Butyrylcholinesterase (Rattus norvegicus) (Q9JKC1 as listed by the source): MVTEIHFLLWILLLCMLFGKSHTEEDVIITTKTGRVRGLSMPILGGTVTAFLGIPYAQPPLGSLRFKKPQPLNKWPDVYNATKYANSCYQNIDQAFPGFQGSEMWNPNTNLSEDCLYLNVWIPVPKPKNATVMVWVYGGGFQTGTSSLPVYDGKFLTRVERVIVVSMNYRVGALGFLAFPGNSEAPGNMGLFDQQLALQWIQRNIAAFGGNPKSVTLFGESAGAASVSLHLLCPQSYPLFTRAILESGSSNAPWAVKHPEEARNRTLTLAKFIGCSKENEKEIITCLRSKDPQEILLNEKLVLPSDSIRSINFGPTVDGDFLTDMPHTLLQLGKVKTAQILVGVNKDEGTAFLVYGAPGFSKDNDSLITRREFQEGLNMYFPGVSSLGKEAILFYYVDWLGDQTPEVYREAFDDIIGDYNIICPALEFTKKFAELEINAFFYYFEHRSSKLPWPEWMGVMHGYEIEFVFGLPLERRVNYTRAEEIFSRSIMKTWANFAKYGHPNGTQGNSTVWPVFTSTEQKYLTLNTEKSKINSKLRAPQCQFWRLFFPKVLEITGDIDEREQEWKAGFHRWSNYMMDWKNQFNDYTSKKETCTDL

Cholinesterase [18] = molecular target: T3, Cholinesterase; assay: Inhibition of human plasma butyrylcholinesterase by Ellman's method
Acetylcholinesterase [19] = molecular target: T2, Acetylcholinesterase; assay: biochemical
Description: Inhibition of human acetylcholinesterase expressed in HEK 293 cells using acetylthiocholine iodide as substrate by Ellman's method

CC1=CC2Cc3nc4cc(Cl)ccc4c(N)c3C(C1)C2 (racemic) [HUPRINE Y]
IC50 (Acetylcholinesterase [1]): 84.3 nM

O=C(/C=C/c1ccc(OCc2ccccc2)cc1)NCCNc1c2c(nc3ccccc13)CCCC2
IC50 (Acetylcholinesterase [2]): 60.6 nM
IC50 (Cholinesterase [3]): 86.1 nM
IC50 (Cholinesterase [4]): 42.6 nM
Selectivity Index (Homo sapiens [5]): 0.7
IC50 (Acetylcholinesterase [6]): 29.5 nM

CC1=CC2Cc3nc4cc(Cl)ccc4c(N)c3C(C1)C2 (single isomer, unassigned; (-)) [HUPRINE Y]
IC50 (Acetylcholinesterase [1]): 31.6 nM

CN[C@H](CCOc1ccc([N+](=O)[O-])cc1)c1ccc(OC(=O)N(C)C)cc1
IC50 [7]: 135 nM
IC50 (Acetylcholinesterase [8]): 143 nM

C#CCN(C)C(C)Cc1cccc(OC(=O)N(C)CCCCCC)c1 (single isomer, unassigned; (-))
IC50 (Acetylcholinesterase [9]): 3400 nM

COc1ccc2[nH]cc(CCNC(=O)/C=C\C(=O)Nc3ccc4c(c3)C(=O)c3cccc5ccnc-4c35)c2c1
IC50 (Acetylcholinesterase [10]): 6100 nM
inhibition [11]: 50.4%

COc1cc(/C=C/C(=O)NCCNc2c3c(nc4ccccc24)CCCC3)ccc1OCc1ccccc1
IC50 (Acetylcholinesterase [2]): 55.1 nM
IC50 (Cholinesterase [3]): 55.9 nM
IC50 (Cholinesterase [4]): 52.6 nM
Selectivity Index (Homo sapiens [5]): 1
IC50 (Acetylcholinesterase [6]): 15.8 nM

O=C(/C=C/C(=O)Nc1ccc2c(c1)C(=O)c1cccc3ccnc-2c13)NCCc1c[nH]c2ccc(F)cc12
IC50 (Acetylcholinesterase [10]): 2370 nM
inhibition [11]: 60.5%

CCC1=CC2Cc3nc4ccccc4c(N)c3C(C1)C2 (racemic)
IC50 (Acetylcholinesterase [1]): 84 nM

CNC(CCOc1ccc([N+](=O)[O-])cc1)c1ccc(OC(=O)N(C)C)cc1 (racemic)
IC50 [7]: 44 nM
IC50 (Acetylcholinesterase [8]): 125 nM

c1ccc2c(NCCSSCCNc3c4c(nc5ccccc35)CCCC4)c3c(nc2c1)CCCC3
IC50 (Cholinesterase [12]): 5.66 nM

COc1cc2oc(-c3ccc(NCCCNc4c5c(nc6cc(Cl)ccc46)CCCC5)cc3)cc(=O)c2c(OC)c1OC
Selectivity Index (Homo sapiens [13]): 92

CC1=C[C@@H]2Cc3nc4cc(F)ccc4c(N)c3[C@H](C1)C2 (racemic)
IC50 (Acetylcholinesterase [1]): 8 nM
IC50 (Acetylcholinesterase [14]): 85 nM

CN(C)C(=O)Oc1ccc2c(c1)C=CCN(C)[C@H]2CCOc1ccc([N+](=O)[O-])cc1
IC50 [7]: 930 nM

COc1ccc2[nH]cc(CCNC(=O)CN(CCC3CCN(Cc4ccccc4)CC3)C(=O)/C=C/c3ccc(O)c(OC)c3)c2c1
IC50 (Acetylcholinesterase [15]): 30.7 nM
IC50 (Cholinesterase [16]): 21.8 nM

CCN(CC)Cc1ccc(/C=C/c2cnc(C)c3c2COC(C)(C)O3)cc1O
inhibition [17]: 8.9%

Cc1ccc2[nH]cc(CCNC(=O)/C=C\C(=O)Nc3ccc4c(c3)C(=O)c3cccc5ccnc-4c35)c2c1
IC50 (Acetylcholinesterase [10]): 5100 nM
inhibition [11]: 57.7%

C/C=C1\C2C=C(C)CC1c1c(nc3ccccc3c1N)C2 (racemic)
IC50 (Acetylcholinesterase [14]): 320 nM

CN(C)C(=O)Oc1ccc([C@@H](N)CCOc2ccc([N+](=O)[O-])cc2)cc1
IC50 [7]: 42 nM
IC50 (Acetylcholinesterase [8]): 101 nM

CN[C@@H](CCOc1ccc([N+](=O)[O-])cc1)c1ccc(OC(=O)N(C)C)cc1
IC50 [7]: 42 nM
IC50 (Acetylcholinesterase [8]): 101 nM

O=C(c1ccc(OCCCc2cnc[nH]2)cc1)C1CC1 [CIPROXIFAN]
IC50 (Cholinesterase [18]): 77300 nM
IC50 (Acetylcholinesterase [19]): 86100 nM

COc1cc2oc(-c3ccc(NCCCCNc4c5c(nc6cc(Cl)ccc46)CCCC5)cc3)cc(=O)c2c(OC)c1OC
Selectivity Index (Homo sapiens [13]): 1690

CC1=C[C@@H]2Cc3nc4cc(F)ccc4c(N)c3[C@H](C1)C2
IC50 (Acetylcholinesterase [1]): 48.6 nM

O=C(/C=C\C(=O)Nc1ccc2c(c1)C(=O)c1cccc3ccnc-2c13)NCCc1c[nH]c2ccc(F)cc12
IC50 (Acetylcholinesterase [10]): 15000 nM
inhibition [11]: 32.5%

CN(C)C(=O)Oc1ccc2c(c1)C=CCN[C@@H]2CCOc1ccc([N+](=O)[O-])cc1
IC50 [7]: 6 nM
IC50 (Acetylcholinesterase [8]): 14 nM

C#CCN(C)C(C)Cc1cccc(OC(=O)N(C)CCCCCC)c1 (single isomer, unassigned; (+))
IC50 (Acetylcholinesterase [9]): 2000 nM

CC1=CC2Cc3nc4ccccc4c(N)c3C(C1)C2 (racemic)
IC50 (Acetylcholinesterase [1]): 176 nM

COc1ccc2[nH]cc(CCNC(=O)CN(CCCC3CCN(Cc4ccccc4)CC3)C(=O)/C=C/c3ccc(O)c(OC)c3)c2c1
IC50 (Acetylcholinesterase [15]): 26.2 nM
IC50 (Cholinesterase [16]): 17.5 nM

COc1cc2oc(-c3ccc(NCCNc4c5c(nc6cc(Cl)ccc46)CCCC5)cc3)cc(=O)c2c(OC)c1OC
Selectivity Index (Homo sapiens [13]): 742
